Measured values published in patent publication US8901116B2, “Method for treating pain, anxiety or depression using carbamoyloxy alkanoyl piperazine compound” (SK Biopharmaceuticals Co., Ltd., priority 2007, dated 2014).

Key:
Assay type in all cases: in vivo
[1] = tested on: male ICR mouse; assay: Acetic acid-induced writhing test in mouse; details: po, p.o, acetic acid i.p. 1 hour after dosing, writhing counted for 10 minutes, read-out: Writhing Test Suppression of pain response
Experimental: An acetic acid-induced writhing test is one of models for measuring an analgesic effect of drugs. A test material dissolved in a suitable vehicle was orally administered to a male ICR mouse weighing 30 to 35 g at an amount of 10 mg/kg. After 1 hour of the oral administration, […] of an aqueous 0.8% acetic acid solution was intraperitoneally injected into the male ICR mouse to induce the abdominal pain of the male ICR mouse. Right after the administration of acetic acid, the male ICR mouse was put into an empty cage, and the number of writhing behaviors of the mice was counted for 10 minutes. The term “writhing” represents a reflex action in which the mouse overtly extends its abdomen by stretching its hind legs due to the abdominal pain. The analgesic effect of the test material is represented by the ‘suppression of pain response’ {[(Writhing number of vehicle-administered group−Writhing number of Test material—administered group)/(Writhing number of Solvent-administered group)]×100%}.

[2] = tested on: male ICR mouse; assay: Hot plate test in mouse; details: po, p.o, 1 hour after dosing, hot plate 55° C., read-out: Hot Plate Test Increase in latency of avoidance response
Experimental: A hot plate test is one of representative models for measuring an analgesic effect of drugs. A test material dissolved in a suitable vehicle was orally administered to a male ICR mouse weighing 25 to 30 g at an amount of 30 mg/kg. After 1 hour of the oral administration, the mouse was put on a hot plate (55° C.). A latency was recorded from the time right after a mouse is put on a hot plate to the time when avoidance responses (flinching, licking, jumping, etc.) to pain are observed from forefeet or rear legs of the mouse. The analgesic effect of the test material is represented by the ‘Increase in latency of avoidance response’ {[(Latency of avoidance response to pain of Test material-administered group−Latency of avoidance response to pain of vehicle-administered group)/(Latency of avoidance response to pain of Solvent-administered group)]×100%}.

[3] = tested on: male ICR mouse; assay: Elevated plus maze (EPM) test in mouse; details: po, p.o, 1 hour after dosing, 5 minutes observation, read-out: Elevated Plus Maze Change index in Open-Arm Time
Source text: Elevated plus maze (EPM) is one of representative models that examine an anti-anxiety activity of a test material. Equipment used for an EPM test has a crossroad shape raised in a high position off the ground, and is configured in such a cliff shape that both sides of one road are protected with high walls and the other road is free from the wall. Among them, the road in the cliff shape is referred to as an ‘open arm,’ and the road protected by the walls is referred to as a ‘close arm.’ In this case, a level of the anxiety of a mouse may be measured by determining in which arm the mouse stays longer. In general, the mouse stays longer in the close arm than the open arm, but a mouse treated with a medicine showing an anti-anxiety effect stays relatively longer in the open arm. A test material dissolved in a suitable vehicle was orally administered to a male ICR mouse weighing 20 to 25 g at an amount of 10 mg/kg. After 1 hour of the oral administration, the mouse was put on the center of an EPM equipment to measure how long the mouse stays in the open arm within a time range of 5 minutes. The anti-anxiety effect of the test material is represented by the ‘Change index in Open-Arm Time’ {[(open arm duration in test material-administered group−open arm duration in vehicle-administered group)/(open arm duration in vehicle administered group)]×100%}.

[4] = tested on: male ICR mouse; assay: Head twitch potentiation induced by 5-HTP (5-HTP potentiation test) in mouse; details: po, 0.5 h, p.o, 5-HTP 80 mg/kg + Carbidopa 25 mg/kg i.p. 30 minutes after dosing, head twitches counted for 2 minutes, negative = 5-HT2A antagonist, read-out: 5-HTP Potentiation Increase rate in Head Twitch No.
Experimental: When 5-hydroxy-L-tryptophan (5-HTP) is administered into a mouse, a head twitch phenomenon is observed since serotonin is increasingly secreted in the mouse. […] By using this principle, it is possible to search an effect of the representative antidepressant agent. A test material dissolved in a suitable vehicle was orally administered to a male ICR mouse weighing 20 to 25 g at an amount of 30 mg/kg. After 30 minutes of the oral administration, 5-HTP (80 mg/kg) and 5-HTP peripheral decarbozylase inhibitor ‘Carbidopa’ (25 mg/kg) were intraperitoneally administered to the mouse. After 30 minutes of the intraperitoneal administration, the mouse was put into an observation cage, and head twitches of the mouse were counted for 2 minutes. The anti-depression effect of the test material is represented by the ‘Increase rate in Head Twitch No.’ {[(Head Twitch No. of Test material-administered group−Head Twitch No. of vehicle-administered group)/(Head Twitch No. of vehicle-administered group)]×100%}. […] In addition to the selective serotonin reuptake inhibitor (SSRI) that has been widely used as an antidepressant agent in the clinical fields, it was tested that 5-HT2A antagonists such as nefazodone and trazodone also have an antidepressant effect.

Molecule `NC(=O)OC(CC(=O)N1CCN(c2ccc(F)cc2)CC1)c1ccccc1` (centres unmarked) [Example 1, carbamic acid 3-[4-(4-fluoro-phenyl)-piperazin-1-yl]-3-oxo-1-phenyl-propyl ester] has an inhibition in vivo at 10 mg/kg [1] of 73.5%, a change in vivo at 30 mg/kg [2] of 17% and a change in vivo at 10 mg/kg [3] of 25.6%. It also gave a change in vivo at 30 mg/kg [4] of -65.7%.

With `COc1ccc(N2CCN(C(=O)CC(OC(N)=O)c3ccccc3)CC2)cc1` (centres unmarked) [Example 2, carbamic acid 3-[4-(4-methoxy-phenyl)-piperazin-1-yl]-3-oxo-1-phenyl-propyl ester] the inhibition in vivo at 10 mg/kg [1] was 54.6% and the change in vivo at 30 mg/kg [2] was 37.5%.

`NC(=O)OC(CC(=O)N1CCN(c2ccc(Cl)c(Cl)c2)CC1)c1ccccc1` (centres unmarked) [Example 3, carbamic acid 3-[4-(3,4-dichloro-phenyl)-piperazin-1-yl]-3-oxo-1-phenyl-propyl ester] gave an inhibition in vivo at 10 mg/kg [1] of 65%, a change in vivo at 30 mg/kg [2] of 38.5% and a change in vivo at 10 mg/kg [3] of 9.7%. It also gave a change in vivo at 30 mg/kg [4] of 54.5%.

`Cc1ccc(N2CCN(C(=O)CC(OC(N)=O)c3ccccc3)CC2)cc1` (centres unmarked) [Example 4, carbamic acid 3-oxo-1-phenyl-3-(4-p-tolyl-piperazin-1-yl)-propyl ester] was tested, and the inhibition in vivo at 10 mg/kg [1] was 74.6%, the change in vivo at 30 mg/kg [2] was 34.1% and the change in vivo at 10 mg/kg [3] was 41.1%. For the same molecule, the change in vivo at 30 mg/kg [4] was -7.1%.

Work on `COc1ccc(N2CCN(C(=O)CC(OC(N)=O)c3ccccc3)CC2)cc1OC` (centres unmarked) [Example 5, carbamic acid 3-[4-(3,4-dimethoxy-phenyl)-piperazin-1-yl]-3-oxo-1-phenyl-propyl ester] yielded an inhibition in vivo at 10 mg/kg [1] of 79.7% and a change in vivo at 30 mg/kg [2] of 39.2%.

Molecule `COc1ccc(N2CCN(C(=O)CC(OC(N)=O)c3ccc(Cl)cc3)CC2)cc1OC` (centres unmarked) [Example 6, carbamic acid 1-(4-chloro-phenyl)-3-[4-(3,4-dimethoxy-phenyl)-piperazin-1-yl]-3-oxo-propyl ester] has an inhibition in vivo at 10 mg/kg [1] of 44.8% and a change in vivo at 30 mg/kg [2] of 11%.

`COc1ccc(N2CCN(C(=O)CC(OC(N)=O)c3ccc(F)cc3)CC2)cc1OC` (centres unmarked) [Example 7, carbamic acid 3-[4-(3,4-dimethoxy-phenyl)-piperazin-1-yl]-1-(4-fluoro-phenyl)-3-oxo-propyl ester] gave an inhibition in vivo at 10 mg/kg [1] of 40.9% and a change in vivo at 30 mg/kg [2] of 14.7%.

With `COc1ccc(N2CCN(C(=O)CC(OC(N)=O)c3ccc(C)cc3)CC2)cc1OC` (centres unmarked) [Example 8, carbamic acid 3-[4-(3,4-dimethoxy-phenyl)-piperazin-1-yl]-3-oxo-1-p-tolyl-propyl ester] the inhibition in vivo at 10 mg/kg [1] was 30.1% and the change in vivo at 30 mg/kg [2] was 10.9%.

In the case of `COc1ccc(N2CCN(C(=O)CC(OC(N)=O)c3ccccc3)CC2)c(OC)c1` (centres unmarked) [Example 9, carbamic acid 3-[4-(2,4-dimethoxy-phenyl)-piperazin-1-yl]-3-oxo-1-phenyl-propyl ester], the inhibition in vivo at 10 mg/kg [1] was 33.1% and the change in vivo at 30 mg/kg [2] was 16.4%.

`NC(=O)OC(CC(=O)N1CCN(c2cc(Cl)cc(Cl)c2)CC1)c1ccccc1` (centres unmarked) [Example 10, carbamic acid 3-[4-(3,5-dichloro-phenyl)-piperazin-1-yl]-3-oxo-1-phenyl-propyl ester] gave an inhibition in vivo at 10 mg/kg [1] of 26%, a change in vivo at 30 mg/kg [2] of 14.8% and a change in vivo at 10 mg/kg [3] of 27.3%. It also gave a change in vivo at 30 mg/kg [4] of 85.7%.

`COc1cc(OC)cc(N2CCN(C(=O)CC(OC(N)=O)c3ccccc3)CC2)c1` (centres unmarked) [Example 11, carbamic acid 3-[4-(3,5-dimethoxy-phenyl)-piperazin-1-yl]-3-oxo-1-phenyl-propyl ester] gave an inhibition in vivo at 10 mg/kg [1] of 5.5%, a change in vivo at 30 mg/kg [2] of 46.1% and a change in vivo at 10 mg/kg [3] of 19.8%. The change in vivo at 30 mg/kg [4] was 31.3%.

With `NC(=O)OC(CC(=O)N1CCN(c2ccc3c(c2)OCO3)CC1)c1ccccc1` (centres unmarked) [Example 14, carbamic acid 3-(4-benzo[1,3]dioxol-5-yl-piperazin-1-yl)-3-oxo-1-phenyl-propyl ester] the inhibition in vivo at 10 mg/kg [1] was 64% and the change in vivo at 30 mg/kg [2] was 17.8%.

`COc1ccc(C(CC(=O)N2CCN(c3ccccc3)CC2)OC(N)=O)cc1` (centres unmarked) [Example 15, carbamic acid 1-(4-methoxy-phenyl)-3-oxo-3-(4-phenyl-piperazin-1-yl)-propyl ester] showed an inhibition in vivo at 10 mg/kg [1] of 35.1% and a change in vivo at 30 mg/kg [2] of 17.9%.

Work on `NC(=O)OC(CC(=O)N1CCN(c2ccccn2)CC1)c1ccccc1` (centres unmarked) [Example 24, carbamic acid 3-oxo-1-phenyl-3-(4-pyridin-2-yl-piperazin-1-yl)-propyl ester] yielded an inhibition in vivo at 10 mg/kg [1] of 61.2% and a change in vivo at 30 mg/kg [2] of 28.1%.

For `NC(=O)OC(CC(=O)N1CCN(c2ncccn2)CC1)c1ccccc1` (centres unmarked) [Example 25, carbamic acid 3-oxo-1-phenyl-3-(4-pyrimidin-2-yl-piperazin-1-yl)-propyl ester], the inhibition in vivo at 10 mg/kg [1] was 59.3% and the change in vivo at 30 mg/kg [2] was 15.9%.

Molecule `NC(=O)OC(CC(=O)N1CCN(c2ncc(Cl)cc2Cl)CC1)c1ccccc1` (centres unmarked) [Example 26, carbamic acid 3-[4-(3,5-dichloro-pyridin-2-yl)-piperazin-1-yl]-3-oxo-1-phenyl-propyl ester] has an inhibition in vivo at 10 mg/kg [1] of 30.8% and a change in vivo at 30 mg/kg [2] of 20.6%.

`NC(=O)OC(CC(=O)N1CCN(c2ccc(F)c(F)c2)CC1)c1ccccc1` (centres unmarked) [Example 33, carbamic acid 3-[4-(3,4-difluoro-phenyl)-piperazin-1-yl]-3-oxo-1-phenyl-propyl ester] was tested, and the inhibition in vivo at 10 mg/kg [1] was 74.5% and the change in vivo at 30 mg/kg [2] was 43.6%.

`NC(=O)OC(CC(=O)N1CCN(c2ccc(Cl)cc2)CC1)c1ccccc1` (centres unmarked) [Example 38, carbamic acid 3-[4-(4-chloro-phenyl)-piperazin-1-yl]-3-oxo-1-phenyl-propyl ester] was tested, and the inhibition in vivo at 10 mg/kg [1] was 66.1% and the change in vivo at 30 mg/kg [2] was 38.3%.

For `COc1ccc(N2CCN(C(=O)CCC(OC(N)=O)c3ccccc3)CC2)cc1OC` (centres unmarked) [Example 41, carbamic acid 4-[4-(3,4-dimethoxy-phenyl)-piperazin-1-yl]-4-oxo-1-phenyl-butyl ester], the inhibition in vivo at 10 mg/kg [1] was 31.2% and the change in vivo at 30 mg/kg [2] was 28.7%.

With `NC(=O)OC(CC(=O)N1CCN(c2ccccc2)CC1)c1ccccc1[N+](=O)[O-]` (centres unmarked) [Example 42, carbamic acid 1-(2-nitro-phenyl)-3-oxo-3-(4-phenyl-piperazin-1-yl)-propyl ester] the change in vivo at 10 mg/kg [3] was 27.3% and the change in vivo at 30 mg/kg [4] was 33.3%.

Work on `COc1ccc(N2CCN(C(=O)C[C@H](OC(N)=O)c3ccccc3)CC2)cc1OC` [Example 65, (S)-carbamic acid 3-[4-(3,4-dimethoxy-phenyl)-piperazin-1-yl]-3-oxo-1-phenyl-propyl ester] yielded a change in vivo at 30 mg/kg [2] of 38.6%, a change in vivo at 10 mg/kg [3] of 74.7% and a change in vivo at 30 mg/kg [4] of 91.6%.

`COc1ccc(N2CCN(C(=O)C[C@H](OC(N)=O)c3ccccc3)CC2)cc1` [Example 69, (S)-carbamic acid 3-[4-(4-methoxy-phenyl)-piperazin-1-yl]-3-oxo-1-phenyl-propyl ester] was tested, and the change in vivo at 30 mg/kg [2] was 22.9%, the change in vivo at 10 mg/kg [3] was 57.3% and the change in vivo at 30 mg/kg [4] was -14.3%.
